Results reported in US20250282728A1, “NITROGEN COMPRISING HETEROCYCLIC DERIVATIVES FOR THE TREATMENT OF DISORDERS ASSOCIATED WITH GPR55 RECEPTOR” (Cerevance, Inc., priority 2022, published 2025).

How the values were obtained:
rat GPR55 = target: T1, rat GPR55 (Rattus norvegicus, UniProt F1MAK4); test: Ca2+ mobilization assay (FLIPR, Calcium5 dye), rat GPR55; assay type: cell-based; settings: HEK293 cells co-expressing PK-tagged rat GPR55 and EA-tagged beta-arrestin; intracellular calcium increase
T1 construct: expressed in transfected cells; host or cells: HEK293 (human embryonic kidney) cells
T1 sequence (F1MAK4 1-319): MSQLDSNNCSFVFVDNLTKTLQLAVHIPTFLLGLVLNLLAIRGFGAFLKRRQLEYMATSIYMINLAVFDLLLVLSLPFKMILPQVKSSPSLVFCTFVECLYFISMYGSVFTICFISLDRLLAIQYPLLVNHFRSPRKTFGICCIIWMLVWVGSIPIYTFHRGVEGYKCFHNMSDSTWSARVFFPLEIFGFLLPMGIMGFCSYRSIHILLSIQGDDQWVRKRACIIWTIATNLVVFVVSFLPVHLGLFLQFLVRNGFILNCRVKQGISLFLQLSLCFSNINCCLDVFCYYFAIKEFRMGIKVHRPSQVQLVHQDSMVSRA
Method: (§1) This cell-based assay measures the ability of compounds to activate the GPR55 receptor by measuring changes in intracellular calcium levels. HEK293 (human embryonic kidney) cells co-expressing recombinant ProLink (PK) tagged human or rat GPR55 and Enzyme Acceptor (EA) tagged beta-arrestin were seeded into PDL-coated, black-walled clear-bottom 384 well plates in assay buffer (25 mM HEPES, HBSS, 1 mM Probenicid, 0.1% BSA, pH 7.4) containing Calcium5 dye (Molecular Devices). Cells were incubated in suspension with the Calcium5 dye for 1 hour at 37° C., 5% CO2. Dilution series of the compounds in assay buffer were added to the cells in duplicate wells and compound-mediated real-time increases in intracellular calcium concentration were recorded as increased fluorescence using the Molecular Devices FLIPR instrument. Kinetic traces were reduced to a numerical value by subtracting the minimum response from the maximum response.

human GPR55 = target: T2, human GPR55 (Homo sapiens, UniProt Q9Y2T6); test: Ca2+ mobilization assay (FLIPR, Calcium5 dye), human GPR55; assay type: cell-based; settings: HEK293 cells co-expressing PK-tagged human GPR55 and EA-tagged beta-arrestin; intracellular calcium increase
T2 construct: expressed in transfected cells; host or cells: HEK293 (human embryonic kidney) cells
Method: as §1

T2 sequence (Q9Y2T6 whole entry): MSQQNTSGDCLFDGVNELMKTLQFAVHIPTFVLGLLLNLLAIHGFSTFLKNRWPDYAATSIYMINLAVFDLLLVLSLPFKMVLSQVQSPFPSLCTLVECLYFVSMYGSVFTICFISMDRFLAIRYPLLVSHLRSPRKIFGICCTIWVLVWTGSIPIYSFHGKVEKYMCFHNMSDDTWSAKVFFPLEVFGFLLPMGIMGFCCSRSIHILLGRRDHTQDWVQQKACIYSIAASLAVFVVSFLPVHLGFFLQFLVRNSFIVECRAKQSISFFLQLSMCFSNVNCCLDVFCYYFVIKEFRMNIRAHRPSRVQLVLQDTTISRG

EC50 (rat GPR55) [µM] | EC50 (human GPR55) [µM] | SMILES
≤ 0.05 | – | C[C@@H](Nc1ccc(-c2cncc(S(C)(=N)=O)c2)cn1)c1ccc(F)cc1 (mixture of isomers) [Example 27, (6′-(((R)-1-(4-fluorophenyl)ethyl)amino)-[3,3′-bipyridin]-5-yl)(imino)(methyl)-λ^6-sulfanone]
≤ 0.05 | – | CN=S(C)(=O)c1cncc(-c2ccc(N[C@H](C)c3ccc(F)cc3)nc2)c1 (mixture of isomers) [Example 30, (6′-(((R)-1-(4-fluorophenyl)ethyl)amino)-[3,3′-bipyridin]-5-yl)(methyl)(methylimino)-λ6-sulfanone]
≤ 0.05 | ≤ 0.2 | C[C@@H](Nc1cnc(-c2cncc(C(O)C(F)(F)F)c2)cn1)c1ccc(F)cc1 (mixture of isomers) [Example 32, 2,2,2-trifluoro-1-(5-(5-(((R)-1-(4-fluorophenyl)ethyl)amino)pyrazin-2-yl)pyridin-3-yl)ethan-1-ol]
≤ 0.05 | ≤ 1 | CC(O)c1cncc(-c2ccc(N[C@H](C)c3ccc(F)cc3)nc2)c1 (single isomer, unassigned) [Example 16a]
≤ 0.2 | ≤ 0.05 | CC(O)c1cncc(-c2ccc(N[C@H](C)c3ccc(F)cc3)nc2)c1 (single isomer, unassigned) [Example 16b]
≤ 0.2 | – | C[C@@H](Nc1ccc(-c2cncc(S(C)(=N)=O)c2)cn1)c1ccc(F)cc1 (single isomer, unassigned) [Example 27a]
≤ 1 | – | C[C@@H](Nc1ccc(-c2cncc(S(C)(=N)=O)c2)cn1)c1ccc(F)cc1 (single isomer, unassigned) [Example 27b]
≤ 1 | ≤ 0.05 | CC(Nc1cc(F)c(-c2cncc(S(C)(=O)=O)c2)cn1)c1ccc(F)cc1 (single isomer, unassigned) [Example 29a, 4-fluoro-N-(1-(4-fluorophenyl)ethyl)-5′-(methylsulfonyl)-[3,3′-bipyridin]-6-amine]
≤ 5 | ≤ 1 | CC(Nc1cc(F)c(-c2cncc(S(C)(=O)=O)c2)cn1)c1ccc(F)cc1 (single isomer, unassigned) [Example 29b, 4-fluoro-N-(1-(4-fluorophenyl)ethyl)-5′-(methylsulfonyl)-[3,3′-bipyridin]-6-amine]
≤ 0.05 | – | CN=S(C)(=O)c1cncc(-c2ccc(N[C@H](C)c3ccc(F)cc3)nc2)c1 (single isomer, unassigned) [Example 30a]
≤ 1 | – | CN=S(C)(=O)c1cncc(-c2ccc(N[C@H](C)c3ccc(F)cc3)nc2)c1 (single isomer, unassigned) [Example 30b]
≤ 0.05 | ≤ 0.05 | C[C@@H](Nc1cnc(-c2cncc(C(O)C(F)(F)F)c2)cn1)c1ccc(F)cc1 (single isomer, unassigned) [Example 32a]
≤ 1 | ≤ 0.05 | C[C@@H](Nc1cnc(-c2cncc(C(O)C(F)(F)F)c2)cn1)c1ccc(F)cc1 (single isomer, unassigned) [Example 32b]
≤ 0.2 | ≤ 1 | Cc1cncc(-c2ccc(NC(C)c3ccc(Cl)cc3)nc2)c1 (single isomer, unassigned) [Example 46a, N-(1-(4-chlorophenyl)ethyl)-5′-methyl-[3,3′-bipyridin]-6-amine]
≤ 0.2 | ≤ 1 | C[C@@H](Nc1cnc(-c2cncc(C(O)C(F)F)c2)cn1)c1ccc(F)cc1 (single isomer, unassigned) [Example 54a]
≤ 1 | ≤ 1 | C[C@@H](Nc1cnc(-c2cncc(C(O)C(F)F)c2)cn1)c1ccc(F)cc1 (single isomer, unassigned) [Example 54b]
≤ 1 | ≤ 1 | Cc1cc(C(C)Nc2ncc(-c3ccc4oc(=O)n(C)c4c3)nn2)ccc1F (single isomer, unassigned) [Example 77a, 5-(3-((1-(4-fluoro-3-methylphenyl)ethyl)amino)-1,2,4-triazin-6-yl)-3-methylbenzo[d]oxazol-2(3H)-one]
≤ 1 | ≤ 1 | CC(Nc1ncc(-c2ccc3oc(=O)n(C)c3c2)nn1)c1ccc(Cl)c(Cl)c1 (single isomer, unassigned) [Example 78a, 5-(3-((1-(3,4-dichlorophenyl)ethyl)amino)-1,2,4-triazin-6-yl)-3-methylbenzo[d]oxazol-2(3H)-one]
≤ 5 | – | Cc1cncc(-c2ccc(NC(C)c3ccc(F)cc3)nc2)c1 (centres unmarked) [Example 1, N-(1-(4-fluorophenyl)ethyl)-5′-methyl-[3,3′-bipyridin]-6-amine]

EC50 (rat GPR55) [µM] | EC50 (human GPR55) [µM] | SMILES
≤ 5 | ≤ 0.05 | Cc1cncc(-c2ccc(N[C@H](C)c3ccc(F)c(F)c3)nc2)c1 [Example 2, (R)-N-(1-(3,4-difluorophenyl)ethyl)-5′-methyl-[3,3′-bipyridin]-6-amine]
≤ 0.05 | – | Cc1cncc(-c2ccc(N[C@H](C)c3ccc(F)cc3)nc2)c1 [Example 3, (R)-N-(1-(4-fluorophenyl)ethyl)-5′-methyl-[3,3′-bipyridin]-6-amine]
≤ 1 | – | CCc1cncc(-c2ccc(N[C@H](C)c3ccc(F)cc3)nc2)c1 [Example 4, (R)-5′-ethyl-N-(1-(4-fluorophenyl)ethyl)-[3,3′-bipyridin]-6-amine]
≤ 1 | ≤ 0.05 | C[C@@H](Nc1ccc(-c2cncc(C3CC3)c2)cn1)c1ccc(F)cc1 [Example 5, (R)-5′-cyclopropyl-N-(1-(4-fluorophenyl)ethyl)-[3,3′-bipyridin]-6-amine]
≤ 0.2 | ≤ 0.2 | C[C@@H](Nc1ccc(-c2cncc(S(C)(=O)=O)c2)cn1)c1ccc(F)cc1 [Example 7, (R)-N-(1-(4-fluorophenyl)ethyl)-5′-(methylsulfonyl)-[3,3′-bipyridin]-6-amine]
≤ 0.05 | – | C[C@@H](Nc1ccc(-c2cncc(C(F)(F)F)c2)cn1)c1ccc(F)cc1 [Example 8, (R)-N-(1-(4-fluorophenyl)ethyl)-5′-(trifluoromethyl)-[3,3′-bipyridin]-6-amine]
≤ 0.05 | ≤ 0.2 | C[C@@H](Nc1ccc(-c2cncc(Cl)c2)cn1)c1ccc(F)cc1 [Example 9, (R)-5′-chloro-N-(1-(4-fluorophenyl)ethyl)-[3,3′-bipyridin]-6-amine]
≤ 1 | ≤ 1 | Cc1cnc(C)c(-c2ccc(N[C@H](C)c3ccc(F)cc3)nc2)c1 [Example 10, (R)-N-(1-(4-fluorophenyl)ethyl)-2′,5′-dimethyl-[3,3′-bipyridin]-6-amine]
≤ 1 | ≤ 1 | Cc1cncc(-c2ccc(N[C@H](C)c3ccc(F)cc3)nc2)c1C [Example 11, (R)-N-(1-(4-fluorophenyl)ethyl)-4′,5′-dimethyl-[3,3′-bipyridin]-6-amine]
≤ 5 | ≤ 1 | C[C@@H](Nc1ccc(-c2cncc(N(C)C)c2)cn1)c1ccc(F)cc1 [Example 12, (R)-N6′-(1-(4-fluorophenyl)ethyl)-N5,N5-dimethyl-[3,3′-bipyridine]-5,6′-diamine]
≤ 5 | ≤ 0.2 | CC[S+]([O-])c1cncc(-c2ccc(N[C@H](C)c3ccc(F)cc3)nc2)c1 (stereo partly drawn) [Example 13, 5′-(ethylsulfinyl)-N-((R)-1-(4-fluorophenyl)ethyl)-[3,3′-bipyridin]-6-amine]
≤ 5 | ≤ 0.2 | C[C@@H](Nc1ccc(-c2cncc([S+](C)[O-])c2)cn1)c1ccc(F)cc1 (stereo partly drawn) [Example 14, N-((R)-1-(4-fluorophenyl)ethyl)-5′-(methylsulfinyl)-[3,3′-bipyridin]-6-amine]
≤ 1 | ≤ 0.2 | CCS(=O)(=O)c1cncc(-c2ccc(N[C@H](C)c3ccc(F)cc3)nc2)c1 [Example 15, (R)-5′-(ethylsulfonyl)-N-(1-(4-fluorophenyl)ethyl)-[3,3′-bipyridin]-6-amine]
≤ 5 | – | C[C@@H](Nc1ncc(-c2cncc(S(C)(=O)=O)c2)cn1)c1ccc(F)cc1 [Example 25, (R)-N-(1-(4-fluorophenyl)ethyl)-5-(5-(methylsulfonyl)pyridin-3-yl)pyrimidin-2-amine]
≤ 5 | – | C[C@@H](Nc1cnc(-c2cncc(CC(F)(F)F)c2)cn1)c1ccc(F)cc1 [Example 53, (R)-N-(1-(4-fluorophenyl)ethyl)-5-(5-(2,2,2-trifluoroethyl)pyridin-3-yl)pyrazin-2-amine]
≤ 5 | – | C[C@@H](Nc1ncc(-c2cncc(CC(F)(F)F)c2)nn1)c1ccc(F)cc1 [Example 55, (R)-N-(1-(4-fluorophenyl)ethyl)-6-(5-(2,2,2-trifluoroethyl)pyridin-3-yl)-1,2,4-triazin-3-amine]
≤ 1 | – | C[C@@H](Nc1ccc(-c2ccc3oc(=O)n(C)c3c2)cn1)c1ccc(F)cc1 [Example 60, (R)-5-(6-((1-(4-fluorophenyl)ethyl)amino)pyridin-3-yl)-3-methylbenzo[d]oxazol-2(3H)-one]
≤ 0.2 | – | C[C@@H](Nc1ncc(-c2ccc3oc(=O)n(C)c3c2)nn1)c1ccc(F)cc1 [Example 64, (R)-5-(3-((1-(4-fluorophenyl)ethyl)amino)-1,2,4-triazin-6-yl)-3-methylbenzo[d]oxazol-2(3H)-one]
